This is an account of results in patent publication US20240018145A1, “[…]-DEPENDENT EN[…] TREATING OR […]” (priority 2020, published 2024).

Like-named read-outs stand apart in the source and are kept apart here.

The subject of the assay is FLU A (PR/8/34). As to the kind of experiment: Flu A Neuraminidase Antiviral Assay. The class given is cell-based.

The term EC50 denotes the midpoint of the concentration-response curve. A high value points to a need for much substance. `CN1C(=O)c2c(O)c(=O)ccn2N2C(c3ccccc3)C(CCC3CC3)CCC12` (single isomer, unassigned) [Compound 115A, 2-(2-cyclopropylethyl)-7-hydroxy-5-methyl-1-phenyl-1,2,3,4,4a,5-hexahydrodipyrido[1,2-b:2′,1′-f][1,2,4]triazine-6,8-dione]: the EC50 was over 8100 nM. Turning to `CN1C(=O)c2c(O)c(=O)ccn2N2C1CCC1(CCC(C(F)(F)F)CC1)C2c1ccccc1` (single isomer, unassigned) [Compound 73D, 7′-hydroxy-5′-methyl-1′-phenyl-4-(trifluoromethyl)-3′,4′,4a′,5′-tetrahydro-1′H-spiro[cyclohexane-1,2′-dipyrido[1,2-b:2′,1′-f][1,2,4]triazine]-6′,8′-dione], the EC50 turned out to be 6.6 nM.

As to `CN1C(=O)c2c(O)c(=O)ccn2N2C1CCCC21CCc2ccccc21` (single isomer, unassigned) [Compound 21B, 7-hydroxy-5-methyl-2′,3,3′,4,4a,5-hexahydro-2H-spiro[dipyrido[1,2-b:2′,1′-f][1,2,4]triazine-1,1′-indene]-6,8-dione], a half-maximal response (EC50) required 2.6 nM. On the same count and under the same terms, for `CN1C(=O)c2c(O)c(=O)ccn2N2C(c3ccc(Cl)c(F)c3)CCCC12` (single isomer, unassigned) [Compound 3B, 1-(4-chloro-3-fluorophenyl)-7-hydroxy-5-methyl-1,2,3,4,4a,5-hexahydrodipyrido[1,2-b:2′,1′-f][1,2,4]triazine-6,8-dione] the value was over 2700 nM; for `O=C1c2c(O)c(=O)ccn2N2C(c3ccccc3)C(CC3(C(F)(F)F)CC3)CCC2N1CC1CC1` (single isomer, unassigned) [Compound 90A, 5-(cyclopropylmethyl)-7-hydroxy-1-phenyl-2-((1-(trifluoromethyl)cyclopropyl)methyl)-1,2,3,4,4a,5-hexahydrodipyrido[1,2-b:2′,1′-f][1,2,4]triazine-6,8-dione], 772 nM; for `CN1C(=O)c2c(O)c(=O)ccn2N2C(c3ccc(F)cc3)CCCC12` (single isomer, unassigned) [Compound 2B, 1-(4-fluorophenyl)-7-hydroxy-5-methyl-1,2,3,4,4a,5-hexahydrodipyrido[1,2-b:2′,1′-f][1,2,4]triazine-6,8-dione], 5920 nM. The same measure, in the same setting: for `CCN1C(=O)c2c(O)c(=O)ccn2N2C(c3ccccc3)C(CC(F)(F)F)CCC12C` (single isomer, unassigned) [Compound 82B, 5-ethyl-7-hydroxy-4a-methyl-1-phenyl-2-(2,2,2-trifluoroethyl)-1,2,3,4,4a,5-hexahydrodipyrido[1,2-b:2′,1′-f][1,2,4]triazine-6,8-dione] the value was 2.3 nM.

The compound `Cc1ccccc1C1C(CC(F)(F)F)CCC2(C)N(C)C(=O)c3c(O)c(=O)ccn3N12` (single isomer, unassigned) [Compound 87A, 7-hydroxy-4a,5-dimethyl-1-(o-tolyl)-2-(2,2,2-trifluoroethyl)-1,2,3,4,4a,5-hexahydrodipyrido[1,2-b:2′,1′-f][1,2,4]triazine-6,8-dione] yielded an EC50 of over 810 nM. On the same count and under the same terms, for `CCN1C(=O)c2c(O)c(=O)ccn2N2C(c3ccccc3)C(c3ccc(F)c(F)c3)CCC12` (single isomer, unassigned) [Compound 94A, 2-(3,4-difluorophenyl)-5-ethyl-7-hydroxy-1-phenyl-1,2,3,4,4a,5-hexahydrodipyrido[1,2-b:2′,1′-f][1,2,4]triazine-6,8-dione] the value was 397 nM; for `CN1C(=O)c2c(O)c(=O)ccn2N2C(c3ccccc3F)C(CC(F)(F)F)CCC12` (single isomer, unassigned) [Compound 127B, 1-(2-fluorophenyl)-7-hydroxy-5-methyl-2-(2,2,2-trifluoroethyl)-1,2,3,4,4a,5-hexahydrodipyrido[1,2-b:2′,1′-f][1,2,4]triazine-6,8-dione], 3 nM. Compound `CN1C(=O)c2c(O)c(=O)ccn2N2C(c3ccccc3)C(CC(F)(F)F)CCC12C` (single isomer, unassigned) [Compound 111A, 7-hydroxy-4a,5-dimethyl-1-phenyl-2-(2,2,2-trifluoroethyl)-1,2,3,4,4a,5-hexahydrodipyrido[1,2-b:2′,1′-f][1,2,4]triazine-6,8-dione] returned an EC50 of over 8100 nM. `CN1C(=O)c2c(O)c(=O)ccn2N2C1CC[C@H]1CCc3ccccc3[C@H]12` (stereo partly drawn) [Compound 150, Cis-16-hydroxy-2-methyl-2,2a,3,4,4a,5,6,10b-octahydrobenzo[h]pyrido[1′,2′:1,6][1,2,4]triazino[2,3-a]quinoline-1,15-dione] yielded an EC50 (MDCK, 48 h) of 69.6 nM. This counts as double-digit nanomolar. In turn, `CN1C(=O)c2c(O)c(=O)ccn2N2C(c3cccc(Br)c3)C(CC(F)(F)F)CCC12` (single isomer, unassigned) [Compound 83A, 1-(3-bromophenyl)-7-hydroxy-5-methyl-2-(2,2,2-trifluoroethyl)-1,2,3,4,4a,5-hexahydrodipyrido[1,2-b:2′,1′-f][1,2,4]triazine-6,8-dione] yielded an EC50 of 152 nM. In other words, the sub-micromolar range. The same measure, in the same setting: for `CCCC1CCC2N(C)C(=O)c3c(O)c(=O)ccn3N2C1(C)c1ccccc1` (single isomer, unassigned) [Compound 33B, 7-hydroxy-1,5-dimethyl-1-phenyl-2-propyl-1,2,3,4,4a,5-hexahydrodipyrido[1,2-b:2′,1′-f][1,2,4]triazine-6,8-dione] the value was 1880 nM; for `CN1C(=O)c2c(O)c(=O)ccn2N2C(c3ccccc3)C(c3cc(F)c(F)cc3F)CCC12` (single isomer, unassigned) [Compound 86A, 7-hydroxy-5-methyl-1-phenyl-2-(2,4,5-trifluorophenyl)-1,2,3,4,4a,5-hexahydrodipyrido[1,2-b:2′,1′-f][1,2,4]triazine-6,8-dione], 4.3 nM. On the same count and under the same terms, the value for `Cc1ccccc1C1C(CC(F)(F)F)CCC2N(C)C(=O)c3c(O)c(=O)ccn3N12` (single isomer, unassigned) [Compound 120A, 7-hydroxy-5-methyl-1-(o-tolyl)-2-(2,2,2-trifluoroethyl)-1,2,3,4,4a,5-hexahydrodipyrido[1,2-b:2′,1′-f][1,2,4]triazine-6,8-dione] was 2720 nM. In the case of `CCN1C(=O)c2c(O)c(=O)cc(COC)n2N2C(c3ccccc3)C(CC(F)(F)F)CCC12` (single isomer, unassigned) [Compound 131A, 5-ethyl-7-hydroxy-10-(methoxymethyl)-1-phenyl-2-(2,2,2-trifluoroethyl)-1,2,3,4,4a,5-hexahydrodipyrido[1,2-b:2′,1′-f][1,2,4]triazine-6,8-dione], the EC50 (MDCK, 48 h) was over 810 nM. In the case of `CN1C(=O)c2c(O)c(=O)ccn2N2C(c3ccccc3)C(C3(C(F)(F)F)CC3)CCC12` (single isomer, unassigned) [Compound 108A, 7-hydroxy-5-methyl-1-phenyl-2-(1-(trifluoromethyl)cyclopropyl)-1,2,3,4,4a,5-hexahydrodipyrido[1,2-b:2′,1′-f][1,2,4]triazine-6,8-dione], it took 5420 nM to reach a half-maximal effect (EC50). As to `Cc1cc(=O)c(O)c2n1N1C(c3ccccc3)C(CC(F)(F)F)CCC1N(C)C2=O` (single isomer, unassigned) [Compound 132C, 7-hydroxy-5,10-dimethyl-1-phenyl-2-(2,2,2-trifluoroethyl)-1,2,3,4,4a,5-hexahydrodipyrido[1,2-b:2′,1′-f][1,2,4]triazine-6,8-dione], the EC50 was over 810 nM.
